Source: patent US20110105504A1, “Inhibitors Of 11beta-Hydroxysteroid Dehydrogenase Type 1” (Vitae Pharmaceuticals ,Inc., priority 2008, published 2011)

Target: T1, human 11β-HSD1 (Homo sapiens, UniProt P28845)
T1 construct: expressed in transfected cells; host or cells: CHO cells (microsomes isolated from them)
Assay: Inhibition of microsomal preparation of 11β-HSD1 (SPA, [3H]cortisone to [3H]cortisol), Biological Test Example 1
Type: biochemical
Conditions: microsomes from CHO cells overexpressing human 11β-HSD1; for Average % inhibition at 100 nM / inhibition at 0.1 µM: 100 nM compound; for Average % inhibition at 100 nM: 0.1 µM; for IC50: read-out: IC50 Range
Description: The inhibition of microsomal preparation of 11β-HSD1 by compounds of the invention was measured essentially as previously described (K. Solly, S. S. Mundt, H. J. Zokian, G. J. Ding, A. Hermanowski-Vosatka, B. Strulovici, and W. Zheng, High-Throughput Screening of 11-Beta-Hydroxysteroid Dehydrogenase Type 1 in Scintillation Proximity Assay Format. Assay Drug Dev Technol 3 (2005) 377-384). All reactions were carried out at room temperature in 96 well clear flexible PET Microbeta plates (PerkinElmer). The assay begins by dispensing 49 p. 1 of substrate solution (50 mM HEPES, pH 7.4, 100 mM KCl, 5 mM NaCl, 2 mM MgCl2, 2 mM NADPH and 160 nM [^3H]cortisone (1 Ci/mmol)) and mixing in 1 μL of the test compounds in DMSO previously diluted in half-log increments (8 points) starting at 0.1 mM. After a 10 minute pre-incubation, 50 μL of enzyme solution containing microsomes isolated from CHO cells overexpressing human 11β-HSD1 (10-20 μg/ml of total protein) was added, and the plates were incubated for 90 minutes at room temperature. The reaction was stopped by adding 50 μl of the SPA beads suspension containing 10 μM 18β-glycyrrhetinic acid, 5 mg/ml protein A coated YSi SPA beads (GE Healthcare) and 3.3 μg/ml of anti-cortisol antibody (East Coast Biologics) in Superblock buffer (Bio-Rad). The plates were shaken for 120 minutes at room temperature, and the SPA signal corresponding to [^3H]cortisol was measured on a Microbeta plate reader.

T1 sequence (P28845 whole entry): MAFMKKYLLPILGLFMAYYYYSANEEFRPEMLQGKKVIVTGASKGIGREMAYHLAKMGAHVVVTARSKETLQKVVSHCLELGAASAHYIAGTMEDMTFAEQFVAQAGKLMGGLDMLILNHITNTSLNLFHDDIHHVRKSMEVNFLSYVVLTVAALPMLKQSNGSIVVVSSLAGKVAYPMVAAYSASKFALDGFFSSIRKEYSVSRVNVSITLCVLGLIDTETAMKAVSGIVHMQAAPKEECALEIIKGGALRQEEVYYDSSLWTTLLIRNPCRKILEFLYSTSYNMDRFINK

SMILES	Average % inhibition at 100 nM [%]	IC50 [nM]	inhibition at 0.1 µM [%]
C[C@@H](c1ccc(Br)cc1)N1CC(CCCO)(c2ccc(F)cc2)OC1=O (single isomer, unassigned) [Example 2 Isomer 1]	78.3	< 100	–
C[C@@H](c1ccc(-c2ccc(F)cc2)cc1)N1CC(CCCO)(c2ccc(F)cc2)OC1=O (single isomer, unassigned) [Example 3 Isomer 1]	91.4	< 100	–
Cc1cccc(N2CC(C)(c3ccccc3)OC2=O)c1 (stereo not drawn) [Example 7, 5-Methyl-5-phenyl-3-m-tolyloxazolidin-2-one]	–	> 1000	5.4
C[C@@H](c1ccc(-c2ccc(F)cc2)cc1)N1CC(CCCO)(c2ccc(F)cc2)OC1=O (single isomer, unassigned) [Example 3 Isomer 2]	19.1	> 100	–
C[C@@H](c1ccc(Br)cc1)N1CC(CCCO)(c2ccc(F)cc2)OC1=O (single isomer, unassigned) [Example 2 Isomer 2]	16.9	> 100	–
C[C@@H](c1ccc(-c2ccn(C)c(=O)c2)cc1)N1C[C@](CC(C)(C)O)(c2ccccc2)OC1=O (single isomer, unassigned) [Example 5 Isomer 1]	–	< 100	51.9
C[C@@H](c1ccc(-c2ccn(C)c(=O)c2)cc1)N1C[C@](CCC(C)(C)O)(c2ccccc2)OC1=O (single isomer, unassigned) [Example 6 Isomer 2]	19.8	> 100	–
C[C@@H](c1ccc(-c2ccn(C)c(=O)c2)cc1)N1C[C@](CCC(C)(C)O)(c2ccccc2)OC1=O (single isomer, unassigned) [Example 6 Isomer 1]	–	> 100	18.4
C[C@@H](c1ccc(-c2ccn(C)c(=O)c2)cc1)N1C[C@@](CC(C)(C)O)(c2ccccc2)OC1=O (single isomer, unassigned) [Example 5 Isomer 2]	–	> 100	3.4
